Measurements published in the supplement of paper PMC10307832.

Assays:
Test in all cases: relative viability (nuclei count vs DMSO), 5 days (fraction); higher = more cells survive
Pazopanib + Foretinib = compound: Cc1ccc(Nc2nccc(N(C)c3ccc4c(C)n(C)nc4c3)n2)cc1S(N)(=O)=O [Pazopanib] + COc1cc2c(Oc3ccc(NC(=O)C4(C(=O)Nc5ccc(F)cc5)CC4)cc3F)ccnc2cc1OCCCN1CCOCC1 [Foretinib] (partner 0.25 µM)
In short: (§1)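 A single step with final 0.05% Triton X-100, 1% formaldehyde and 1 ug/ml Hoechst fixed the cells and stained nuclei 5 days after treatment. Lung cancer cell lines in 1536-well plates had been treated by pin tool the day after seeding with one drug alone or a fixed anchor-drug dose plus five library-drug doses (not always all listed) in √10 steps, and nuclei were counted on 4× images. Relative viability is the ratio of nuclei in treated wells to nuclei in vehicle wells, taken as the median of duplicate plates.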

Pazopanib + Bortezomib = compound: Cc1ccc(Nc2nccc(N(C)c3ccc4c(C)n(C)nc4c3)n2)cc1S(N)(=O)=O [Pazopanib] + CC(C)C[C@H](NC(=O)[C@H](Cc1ccccc1)NC(=O)c1cnccn1)B(O)O [Bortezomib] (partner 0.002 µM)
In short: as §1

Pazopanib + OSI-027 = compound: Cc1ccc(Nc2nccc(N(C)c3ccc4c(C)n(C)nc4c3)n2)cc1S(N)(=O)=O [Pazopanib] + COc1cccc2cc(-c3nc([C@H]4CC[C@H](C(=O)O)CC4)n4ncnc(N)c34)[nH]c12 [OSI-027] (partner 0.5 µM)
In short: as §1

Ponatinib + Linsitinib = compound: Cc1ccc(C(=O)Nc2ccc(CN3CCN(C)CC3)c(C(F)(F)F)c2)cc1C#Cc1cnc2cccnn12 [Ponatinib] + C[C@]1(O)C[C@@H](c2nc(-c3ccc4ccc(-c5ccccc5)nc4c3)c3c(N)nccn32)C1 [Linsitinib] (partner 1 µM)
In short: as §1

UMC-11
relative viability (Pazopanib + Foretinib; first compound 0.01 µM): 0.958
relative viability (Pazopanib + Foretinib; first compound 0.03162 µM): 1.16
relative viability (Pazopanib + Foretinib; first compound 0.1 µM): 1.19
relative viability (Pazopanib + Foretinib; first compound 0.3162 µM): 1.07
relative viability (Pazopanib + Foretinib; first compound 1 µM): 1.13
relative viability (Pazopanib + Bortezomib; first compound 0.01 µM): 0.668
relative viability (Pazopanib + Bortezomib; first compound 0.03162 µM): 0.988
relative viability (Pazopanib + Bortezomib; first compound 0.1 µM): 0.781
relative viability (Pazopanib + Bortezomib; first compound 0.3162 µM): 0.662
relative viability (Pazopanib + Bortezomib; first compound 1 µM): 0.976
relative viability (Pazopanib + OSI-027; first compound 0.01 µM): 0.501
relative viability (Pazopanib + OSI-027; first compound 0.03162 µM): 0.544
relative viability (Pazopanib + OSI-027; first compound 0.1 µM): 0.442
relative viability (Pazopanib + OSI-027; first compound 0.3162 µM): 0.504
relative viability (Pazopanib + OSI-027; first compound 1 µM): 0.541
relative viability (Ponatinib + Linsitinib; first compound 0.002 µM): 1.02
relative viability (Ponatinib + Linsitinib; first compound 0.006325 µM): 1.03
relative viability (Ponatinib + Linsitinib; first compound 0.06325 µM): 1.16
relative viability (Ponatinib + Linsitinib; first compound 0.2 µM): 1.03
